Measured values taken from paper PMC5433425 (PeerJ, 2017).
In brackets after ≈: the same amount, converted by molar mass. Several values for one entry are separate records, joined by “and”; a condition that tells them apart may be missing. Equal values may be shown once. Read-outs that look alike come from different tables or passages of the source.

Key:
[1] = system: human monocyte-derived macrophages; assay: Cytotoxicity, AlamarBlue method; type: cell-based; details: for AlamarBlue fluorescence 530/25,590/35 (raw well reading): 72 h
Procedure: (§1) The blood was collected from healthy donors and the peripheral blood mononuclear cells were isolated by Ficoll-Paque Plus (GE Healthcare, Freiburg, Germany) density gradient centrifugation as previously described ([Machado et al., 2016]). […] Fresh medium was added at day 4 post isolation. The effect of the compounds on human monocyte-derived macrophages was evaluated using the AlamarBlue method (Molecular Probes, Life Technologies) ([O’Brien et al., 2000]), and by measuring the release of the lactate dehydrogenase (LDH) into the culture supernatants using the Pierce LDH Cytotoxicity Assay (ThermoFisher Scientific, Waltham, MA, USA) ([Chan, Moriwaki & Rosa, 2013]) according to the manufacturer’s instructions. Briefly, 5 × 10^4 cells were seeded in 96-well microplates treated with the compounds, and incubated at 37 °C with 5% CO2. After 72 h of treatment, the cell viability was assessed. For the AlamarBlue method, the dye was added to each well to a final concentration of 10% and incubated overnight at 37 °C and 5% CO2. The fluorescence was measured with a 540/35 excitation filter and a 590/20 emission filter in a Synergy HT multi-mode microplate reader. The release of LDH from damaged cells into culture supernatants, as an indicator of cytotoxicity, was measured in serum-free medium. Here the amount of enzyme activity correlates to the number of damaged cells. The specific lysis was calculated as follows: (treated cells—spontaneous LDH release)/ (maximum LDH release—spontaneous LDH release) ×100.

[2] = system: human monocyte-derived macrophages; assay: Cytotoxicity, LDH release; type: cell-based; details: 5 µM; 3 days
Procedure: as §1

[3] = system: Enterobacter aerogenes ATCC13048; assay: MIC, antibacterial specificity; type: cell-based
[4] = system: Salmonella enterica serovar Enteritidis NCTC13349; assay: MIC, antibacterial specificity; type: cell-based
[5] = system: Klebsiella pneumoniae FF4891; assay: MIC, antibacterial specificity; type: cell-based
[6] = system: Staphylococcus aureus ATCC25923; assay: MIC, antibacterial specificity; type: cell-based
Mycobacterium avium 104 = assay: MIC, antibacterial specificity; type: cell-based
E. coli AG100A [7] = details: EtBr […] + inhibitor 20 µM
E. coli AG100A [8] = assay: EtBr efflux by real-time fluorometry; details: 20 µM, without glucose
Procedure: Control tubes with only cells and cells with and without 0.4% glucose were included. The fluorescence was measured in a Rotor-Gene 3000 and the data was acquired every 30 s for 30 min at 37 °C. The efflux activity was quantified by comparing the fluorescence data obtained under conditions that promote efflux (presence of glucose and absence of efflux inhibitor) with the data from the control in which the bacteria are under conditions of no efflux (presence of an inhibitor and no energy source).

[9] = three days of exposure, AlamarBlue

## CCCOc1ccc(-c2cc(OCCN3CCNCC3)c3ccccc3n2)cc1 [PQQ4R, 4-(2-(piperazin-1-yl)ethoxy)-2-(4-propoxyphenyl) quinolone]
[1]; 0.625 uM
  AlamarBlue fluorescence 530/25,590/35 (raw well reading): 4943 and 4771 and 4650
[1]; 1.25 uM
  AlamarBlue fluorescence 530/25,590/35 (raw well reading): 4755 and 4559 and 4604
[1]; 5 uM
  AlamarBlue fluorescence 530/25,590/35 (raw well reading): 468 and 451 and 495
[1]; 10 uM
  AlamarBlue fluorescence 530/25,590/35 (raw well reading): 253 and 248
[1]; 20 uM
  AlamarBlue fluorescence 530/25,590/35 (raw well reading): 256 and 246 and 248
[1]; 40 uM
  AlamarBlue fluorescence 530/25,590/35 (raw well reading): 254 and 251 and 248
[1]; 80 uM
  AlamarBlue fluorescence 530/25,590/35 (raw well reading): 254 and 250 and 251
[1]; 160 uM
  AlamarBlue fluorescence 530/25,590/35 (raw well reading): 259 and 263 and 255
[1]; [9]
  CC10: 9.21 µM
  CC90: 12.7 µM
[2]
  increase in LDH release: 52.45%
[3]
  MIC: >256 µg/mL
[4]
  MIC: 256 µg/mL (≈ 654 µM)
[5]
  MIC: >256 µg/mL
[6]
  MIC: 50 µg/mL (≈ 128 µM)
Mycobacterium avium 104
  MIC: 32 µg/mL (≈ 81.7 µM)
E. coli AG100A [7]; cycle 1
  EtBr fluorescence: 3.005
E. coli AG100A [7]; cycle 2
  EtBr fluorescence: 3.689
E. coli AG100A [7]; cycle 3
  EtBr fluorescence: 4.425
E. coli AG100A [7]; cycle 4
  EtBr fluorescence: 5.09
E. coli AG100A [7]; cycle 5
  EtBr fluorescence: 5.663
E. coli AG100A [7]; cycle 6
  EtBr fluorescence: 6.261
E. coli AG100A [7]; cycle 7
  EtBr fluorescence: 6.784
E. coli AG100A [7]; cycle 8
  EtBr fluorescence: 7.347
E. coli AG100A [7]; cycle 9
  EtBr fluorescence: 7.957
E. coli AG100A [7]; cycle 10
  EtBr fluorescence: 8.552
E. coli AG100A [7]; cycle 11
  EtBr fluorescence: 9.107
E. coli AG100A [7]; cycle 12
  EtBr fluorescence: 9.505
E. coli AG100A [7]; cycle 13
  EtBr fluorescence: 10.1469
E. coli AG100A [7]; cycle 14
  EtBr fluorescence: 10.666
E. coli AG100A [7]; cycle 15
  EtBr fluorescence: 11.2994
E. coli AG100A [7]; cycle 16
  EtBr fluorescence: 11.7134
E. coli AG100A [7]; cycle 17
  EtBr fluorescence: 12.3988
E. coli AG100A [7]; cycle 18
  EtBr fluorescence: 12.7522
E. coli AG100A [7]; cycle 19
  EtBr fluorescence: 13.174
E. coli AG100A [7]; cycle 20
  EtBr fluorescence: 13.8181
E. coli AG100A [7]; cycle 21
  EtBr fluorescence: 14.2909
E. coli AG100A [7]; cycle 22
  EtBr fluorescence: 14.7163
E. coli AG100A [7]; cycle 23
  EtBr fluorescence: 15.2505
E. coli AG100A [7]; cycle 24
  EtBr fluorescence: 16.0503
E. coli AG100A [7]; cycle 25
  EtBr fluorescence: 16.1642
E. coli AG100A [7]; cycle 26
  EtBr fluorescence: 16.8061
E. coli AG100A [7]; cycle 27
  EtBr fluorescence: 17.3806
E. coli AG100A [7]; cycle 28
  EtBr fluorescence: 17.8352
E. coli AG100A [7]; cycle 29
  EtBr fluorescence: 18.1109
E. coli AG100A [7]; cycle 30
  EtBr fluorescence: 18.6334
E. coli AG100A [8]; cycle 1
  EtBr fluorescence (Channel Cycling A.530/585hp): 5.807
E. coli AG100A [8]; cycle 2
  EtBr fluorescence (Channel Cycling A.530/585hp): 5.662
E. coli AG100A [8]; cycle 3
  EtBr fluorescence (Channel Cycling A.530/585hp): 5.478
E. coli AG100A [8]; cycle 4
  EtBr fluorescence (Channel Cycling A.530/585hp): 5.356
E. coli AG100A [8]; cycle 5
  EtBr fluorescence (Channel Cycling A.530/585hp): 5.183
E. coli AG100A [8]; cycle 6
  EtBr fluorescence (Channel Cycling A.530/585hp): 5.1485
E. coli AG100A [8]; cycle 7
  EtBr fluorescence (Channel Cycling A.530/585hp): 5.025
E. coli AG100A [8]; cycle 8
  EtBr fluorescence (Channel Cycling A.530/585hp): 4.924
E. coli AG100A [8]; cycle 9
  EtBr fluorescence (Channel Cycling A.530/585hp): 4.937
E. coli AG100A [8]; cycle 10
  EtBr fluorescence (Channel Cycling A.530/585hp): 4.811
E. coli AG100A [8]; cycle 11
  EtBr fluorescence (Channel Cycling A.530/585hp): 4.773
E. coli AG100A [8]; cycle 12
  EtBr fluorescence (Channel Cycling A.530/585hp): 4.602
E. coli AG100A [8]; cycle 13
  EtBr fluorescence (Channel Cycling A.530/585hp): 4.634
E. coli AG100A [8]; cycle 14
  EtBr fluorescence (Channel Cycling A.530/585hp): 4.745
E. coli AG100A [8]; cycle 15
  EtBr fluorescence (Channel Cycling A.530/585hp): 4.684
E. coli AG100A [8]; cycle 16
  EtBr fluorescence (Channel Cycling A.530/585hp): 4.629
E. coli AG100A [8]; cycle 17
  EtBr fluorescence (Channel Cycling A.530/585hp): 4.631
E. coli AG100A [8]; cycle 18
  EtBr fluorescence (Channel Cycling A.530/585hp): 4.599
E. coli AG100A [8]; cycle 19
  EtBr fluorescence (Channel Cycling A.530/585hp): 4.579
E. coli AG100A [8]; cycle 20
  EtBr fluorescence (Channel Cycling A.530/585hp): 4.522
E. coli AG100A [8]; cycle 21
  EtBr fluorescence (Channel Cycling A.530/585hp): 4.504
E. coli AG100A [8]; cycle 22
  EtBr fluorescence (Channel Cycling A.530/585hp): 4.567
E. coli AG100A [8]; cycle 23
  EtBr fluorescence (Channel Cycling A.530/585hp): 4.591
E. coli AG100A [8]; cycle 24
  EtBr fluorescence (Channel Cycling A.530/585hp): 4.544
E. coli AG100A [8]; cycle 25
  EtBr fluorescence (Channel Cycling A.530/585hp): 4.652
E. coli AG100A [8]; cycle 26
  EtBr fluorescence (Channel Cycling A.530/585hp): 4.627
E. coli AG100A [8]; cycle 27
  EtBr fluorescence (Channel Cycling A.530/585hp): 4.498
E. coli AG100A [8]; cycle 28
  EtBr fluorescence (Channel Cycling A.530/585hp): 4.577
E. coli AG100A [8]; cycle 29
  EtBr fluorescence (Channel Cycling A.530/585hp): 4.648
E. coli AG100A [8]; cycle 30
  EtBr fluorescence (Channel Cycling A.530/585hp): 4.639
E. coli AG100A [8]; cycle 31
  EtBr fluorescence (Channel Cycling A.530/585hp): 4.704
E. coli AG100A [8]; cycle 32
  EtBr fluorescence (Channel Cycling A.530/585hp): 4.705
E. coli AG100A [8]; cycle 33
  EtBr fluorescence (Channel Cycling A.530/585hp): 4.739
E. coli AG100A [8]; cycle 34
  EtBr fluorescence (Channel Cycling A.530/585hp): 4.713
E. coli AG100A [8]; cycle 35
  EtBr fluorescence (Channel Cycling A.530/585hp): 4.766
E. coli AG100A [8]; cycle 36
  EtBr fluorescence (Channel Cycling A.530/585hp): 4.793
E. coli AG100A [8]; cycle 37
  EtBr fluorescence (Channel Cycling A.530/585hp): 4.818
E. coli AG100A [8]; cycle 38
  EtBr fluorescence (Channel Cycling A.530/585hp): 4.849
E. coli AG100A [8]; cycle 39
  EtBr fluorescence (Channel Cycling A.530/585hp): 4.826
E. coli AG100A [8]; cycle 40
  EtBr fluorescence (Channel Cycling A.530/585hp): 4.8647
E. coli AG100A [8]; cycle 41
  EtBr fluorescence (Channel Cycling A.530/585hp): 4.7891
E. coli AG100A [8]; cycle 42
  EtBr fluorescence (Channel Cycling A.530/585hp): 4.94
E. coli AG100A [8]; cycle 43
  EtBr fluorescence (Channel Cycling A.530/585hp): 5.003
E. coli AG100A [8]; cycle 44
  EtBr fluorescence (Channel Cycling A.530/585hp): 5
E. coli AG100A [8]; cycle 45
  EtBr fluorescence (Channel Cycling A.530/585hp): 5.002
E. coli AG100A [8]; cycle 46
  EtBr fluorescence (Channel Cycling A.530/585hp): 5.099
E. coli AG100A [8]; cycle 47
  EtBr fluorescence (Channel Cycling A.530/585hp): 5.05
E. coli AG100A [8]; cycle 48
  EtBr fluorescence (Channel Cycling A.530/585hp): 5.085
E. coli AG100A [8]; cycle 49
  EtBr fluorescence (Channel Cycling A.530/585hp): 5.044
E. coli AG100A [8]; cycle 50
  EtBr fluorescence (Channel Cycling A.530/585hp): 5.1253
E. coli AG100A [8]; cycle 51
  EtBr fluorescence (Channel Cycling A.530/585hp): 5.103
E. coli AG100A [8]; cycle 52
  EtBr fluorescence (Channel Cycling A.530/585hp): 5.071
E. coli AG100A [8]; cycle 53
  EtBr fluorescence (Channel Cycling A.530/585hp): 5.2927
E. coli AG100A [8]; cycle 54
  EtBr fluorescence (Channel Cycling A.530/585hp): 5.227
E. coli AG100A [8]; cycle 55
  EtBr fluorescence (Channel Cycling A.530/585hp): 5.134
E. coli AG100A [8]; cycle 56
  EtBr fluorescence (Channel Cycling A.530/585hp): 5.328
E. coli AG100A [8]; cycle 57
  EtBr fluorescence (Channel Cycling A.530/585hp): 5.315
E. coli AG100A [8]; cycle 58
  EtBr fluorescence (Channel Cycling A.530/585hp): 5.365
E. coli AG100A [8]; cycle 59
  EtBr fluorescence (Channel Cycling A.530/585hp): 5.339
E. coli AG100A [8]; cycle 60
  EtBr fluorescence (Channel Cycling A.530/585hp): 5.32
E. coli AG100A [8]; cycle 61
  EtBr fluorescence (Channel Cycling A.530/585hp): 5.417
